Laboratory results reported in patent US20220259235A1, “EGFR Inhibitor, Composition, and Preparation Method Therefor” (BETTA PHARMACEUTICALS CO., LTD, priority 2019, published 2022).
pIC50: −log10 of the molar value. Where two headings read alike, the source gives them in different places.

Assays:
[1] = tested on: A431 EGFR wild-type cell line; test: A431 EGFR wild-type cell proliferation assay (CellTiter Glo, 72 h); format: cell-based; conditions: Homo sapiens, A-431, CTG, read-out: A431 EGFR WT IC50
Method: (§1) Cell line: Ba/F3 cells with stable overexpression of Δ19del/T790M/C797S or L858R/T790M/C797S mutant genes, named Ba/F3-Δ19del/T790M/C797S and Ba/F3-L858R/T790M/C797S, and A431 EGFR wild-type cell line.
(§2) RPMI 1640 and 10% FBS and 1% PS; _EM, 10% PBS and 1% PS
(§3) a) Dilute the test compound (20 mM stock solution) to 10 mM with 100% DMSO as the starting concentration, and then serially dilute 3 times with a “9+0” concentration in 96-well dilution plate (Cat #P-05525, Labcyte);
(§4) b) Dilute compound solution thereof to 1:100 in medium to prepare 10-fold working solution;
(§5) a) Centrifuge the growth cells in logarithmic phase at 1000 rpm for 5 minutes, resuspend the cells in culture medium, and then count the cells;
(§6) b) Inoculate the cells into a 96-well cell culture plate with a density of 2000 cells/well;
(§7) a) The compound prepared in Step 2 was added to a cell plate with 15 μL per well at final concentrations of 1000, 333, 111.1, 37, 12.3, 4.1, 1.4, 0.5, 0.2, and 0 nM. The final concentration of DMSO was 0.1%. The blank control well is with medium (0.1% DMSO).
(§8) b) Incubate cells in an incubatorother 72 hours;
(§9) a) Take out the 96-well cell culture plate and add 50 μl CTG reagent (CellTiter Glo kit, promega, Cat #G7573);
(§10) b) Shake the plate for 2 minutes and let cool at room temperature for 10 minutes,
(§11) c) Read luminous signal value with Perkin Elmer reader.
(§12) Analysis of Experimental Data
(§13) The data were analyzed by GraphPad Prism 6.0 software to obtain the fitting curve of compound activity.
(§14) Fining compound IC50 from nonlinear regression equation:
(§15) Y=Min+(Max−Min)/(1+10^((LogIC50−X)*slope));
(§16) X: Logarithm of compound concentration; Y: luminous signal
(§17) As illustrated in examples, IC50 value is within the following range for the compound of the present invention: “A” represents “IC50≤50 nM”; “B” represents “50 nM<IC50<100 nM”.

Ba/F3-L858R/T790M/C797S = Ba/F3-L858R/T790M/C797S (Homo sapiens, UniProt P00533, T790M/C797S/L858R, cells depend on it); test: Ba/F3-L858R/T790M/C797S cell proliferation assay (CellTiter Glo, 72 h); format: cell-based; conditions: CTG, read-out: BaF3 L858R/T790M/C797S IC50
Chain of Ba/F3-L858R/T790M/C797S (P00533 whole entry T790M/C797S/L858R): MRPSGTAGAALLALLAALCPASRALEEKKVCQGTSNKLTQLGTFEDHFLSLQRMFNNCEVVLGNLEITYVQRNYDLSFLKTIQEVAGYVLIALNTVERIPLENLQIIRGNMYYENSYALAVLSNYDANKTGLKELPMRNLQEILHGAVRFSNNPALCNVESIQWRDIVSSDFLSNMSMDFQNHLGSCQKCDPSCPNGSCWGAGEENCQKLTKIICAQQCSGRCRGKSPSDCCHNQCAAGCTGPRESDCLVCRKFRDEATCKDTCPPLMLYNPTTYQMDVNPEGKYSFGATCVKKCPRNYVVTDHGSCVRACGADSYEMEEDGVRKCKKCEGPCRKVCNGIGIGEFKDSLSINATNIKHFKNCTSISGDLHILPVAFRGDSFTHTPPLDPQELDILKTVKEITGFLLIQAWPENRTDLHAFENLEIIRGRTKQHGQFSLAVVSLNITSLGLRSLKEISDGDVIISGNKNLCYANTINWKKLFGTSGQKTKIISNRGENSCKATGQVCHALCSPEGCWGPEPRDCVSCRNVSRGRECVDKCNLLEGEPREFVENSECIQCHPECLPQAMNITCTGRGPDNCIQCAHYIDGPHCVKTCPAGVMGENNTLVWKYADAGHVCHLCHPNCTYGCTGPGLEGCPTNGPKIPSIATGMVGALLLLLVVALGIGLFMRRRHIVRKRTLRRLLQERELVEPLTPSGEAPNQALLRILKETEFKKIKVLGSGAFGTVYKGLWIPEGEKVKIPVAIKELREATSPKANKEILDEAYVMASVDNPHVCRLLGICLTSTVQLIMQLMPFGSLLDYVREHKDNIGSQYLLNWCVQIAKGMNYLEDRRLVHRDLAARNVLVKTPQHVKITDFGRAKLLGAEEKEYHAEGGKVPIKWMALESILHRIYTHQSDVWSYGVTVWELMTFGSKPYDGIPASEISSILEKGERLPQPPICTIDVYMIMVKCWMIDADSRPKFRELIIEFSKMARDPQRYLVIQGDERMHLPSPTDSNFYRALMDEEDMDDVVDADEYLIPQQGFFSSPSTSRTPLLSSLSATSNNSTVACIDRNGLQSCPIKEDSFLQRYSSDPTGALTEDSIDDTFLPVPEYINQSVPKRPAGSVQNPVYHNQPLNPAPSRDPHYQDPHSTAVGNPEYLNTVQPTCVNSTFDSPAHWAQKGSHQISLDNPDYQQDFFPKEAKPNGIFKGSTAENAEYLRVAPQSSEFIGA
Method: as §1, §2, §3, §4, §5, §6, §7, §8, §9, §10, §11, §12, §13, §14, §15, §16, §17

EGFR Δ19del/T790M/C797S = EGFR Δ19del/T790M/C797S (Homo sapiens, UniProt P00533, T790M/C797S, form not given); test: EGFR Δ19del/T790M/C797S kinase test (mobility shift, Caliper EZ Reader); format: biochemical; conditions: kinase enzymatic activity
Chain of EGFR Δ19del/T790M/C797S (P00533 with tags, fused parts or gaps DEL746-750/T790M/C797S, form open): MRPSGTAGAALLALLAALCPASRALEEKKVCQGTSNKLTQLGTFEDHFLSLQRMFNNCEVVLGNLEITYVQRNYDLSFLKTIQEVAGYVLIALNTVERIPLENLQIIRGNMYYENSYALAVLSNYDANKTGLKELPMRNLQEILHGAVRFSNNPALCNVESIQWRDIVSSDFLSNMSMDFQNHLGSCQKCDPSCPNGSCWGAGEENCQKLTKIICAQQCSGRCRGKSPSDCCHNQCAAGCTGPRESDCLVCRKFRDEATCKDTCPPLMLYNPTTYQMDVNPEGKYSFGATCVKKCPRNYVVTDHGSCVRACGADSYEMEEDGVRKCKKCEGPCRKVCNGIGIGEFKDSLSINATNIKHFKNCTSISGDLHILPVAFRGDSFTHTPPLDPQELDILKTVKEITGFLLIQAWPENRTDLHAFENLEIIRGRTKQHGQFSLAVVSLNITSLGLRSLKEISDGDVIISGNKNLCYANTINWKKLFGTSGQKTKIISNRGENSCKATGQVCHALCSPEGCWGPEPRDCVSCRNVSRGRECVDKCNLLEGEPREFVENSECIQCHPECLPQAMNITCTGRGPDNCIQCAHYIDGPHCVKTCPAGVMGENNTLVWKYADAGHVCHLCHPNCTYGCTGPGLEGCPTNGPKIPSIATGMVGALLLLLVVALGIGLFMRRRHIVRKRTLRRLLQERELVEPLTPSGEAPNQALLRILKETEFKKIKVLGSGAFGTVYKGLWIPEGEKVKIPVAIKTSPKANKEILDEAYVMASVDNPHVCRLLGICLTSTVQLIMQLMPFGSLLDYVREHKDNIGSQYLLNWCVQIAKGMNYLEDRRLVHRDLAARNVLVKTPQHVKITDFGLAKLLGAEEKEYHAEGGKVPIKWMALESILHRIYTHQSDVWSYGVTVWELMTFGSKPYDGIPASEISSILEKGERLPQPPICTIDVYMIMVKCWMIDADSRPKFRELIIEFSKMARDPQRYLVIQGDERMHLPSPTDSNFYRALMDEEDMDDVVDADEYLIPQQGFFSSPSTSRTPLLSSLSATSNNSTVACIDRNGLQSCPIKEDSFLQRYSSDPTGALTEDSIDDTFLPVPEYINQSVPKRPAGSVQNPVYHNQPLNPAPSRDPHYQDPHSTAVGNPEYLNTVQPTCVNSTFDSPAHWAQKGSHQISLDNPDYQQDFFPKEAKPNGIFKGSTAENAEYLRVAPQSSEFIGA
Method: Mobility variation analysis was performed to determine the affinity of the compound for EGFRΔ19del/T790M/C797S. The enzymatic reaction scheme is as follows:
1. Prepare 1* kinase buffer as follows:
2. Preparation of compound concentration gradient: The test compound was tested with an initial concentration of 3000 nM or 100 nM, diluted in a 384 source plate to a 100% DMSO solution with 100-fold final concentration, and the compound is 3-fold diluted with Precision to 10 concentrations. A dispenser Echo 550 was used to transfer 250 nL 100-fold final concentration of the compound to the target plate OptiPlate-384F.
3. Prepare 2.5-fold final concentration of kinase solution with 1×Kinase buffer;
4. Add 10 μL of 2.5-fold final concentration of kinase solution to the compound well and the positive control well; add 10 μL of 1×Kinase buffer to the negative control well.
5. Centrifuge at 1000 rpm for 30 seconds, shake the reaction plate for well mixation, and then incubate at room temperature for 10 minutes.
6. Prepare a mixture of ATP and Kinase substrate at 5/3-fold final concentration with 1×Kinase buffer.
7. Add 15 μL mixture of 5/3-fold final concentration of ATP and substrate to start reaction.
8. Centrifuge the 384-well plate at 1000 rpm for 30 seconds, shake it well and then incubate it at room temperature for corresponding time.
9. Add 30 μL of stop detection solution to stop the kinase reaction, centrifuge at 1000 rpm for 30 seconds, shake it well.
10. Read conversion rate with Caliper EZ Reader.
% Inhibition=((Conversion%_max−Conversion%_sample)/(Conversion%_max−Conversion%_min))*100
Wherein: Conversion%_sample is the sample conversion rate reading; Conversion%_min: Mean value of negative control wells, representing the conversion rate reading of wells without enzymatic activity; Conversion%_max: Mean value of positive control wells, representing the conversion rate reading of wells without compound inhibition.
The dose-effect curve was fitted with concentration log value as X-axis and percentage inhibition rate as Y-axis. Log (inhibitor) vs. Response—Variable Slope of GraphPad Prism 5 was used to fit the dose-effect curve to obtain IC50 value of enzymatic activity for each compound.
The calculation formula is as Y=Bottom (Top−Bottom)/(1+10^((LogIC50−X)*HillSlope)).
As illustrated in examples, IC50 value is within the following range for the compound of the present invention: “A” represents “IC50≤1nM”; “B” represents “1 nM<IC50≤100nM”.

Ba/F3-Δ19del/T790M/C797S = Ba/F3-Δ19del/T790M/C797S (Homo sapiens, UniProt P00533, T790M/C797S, cells depend on it, form not given); test: Ba/F3-Δ19del/T790M/C797S cell proliferation assay (CellTiter Glo, 72 h); format: cell-based; conditions: CTG, read-out: BaF3 Δ19del/T790M/C797S IC50
Chain of Ba/F3-Δ19del/T790M/C797S (P00533 with tags, fused parts or gaps DEL746-750/T790M/C797S, form open): as above
Method: as §1, §2, §3, §4, §5, §6, §7, §8, §9, §10, §11, §12, §13, §14, §15, §16, §17

SMILES | pIC50 [1] | GI50 (Ba/F3-L858R/T790M/C797S; numeric values) [nM] | pIC50 (EGFR Δ19del/T790M/C797S; numeric values) | GI50 (Ba/F3-L858R/T790M/C797S; class symbols) [nM] | pIC50 (EGFR Δ19del/T790M/C797S; class symbols) | GI50 (Ba/F3-Δ19del/T790M/C797S; class symbols) [nM] | GI50 (Ba/F3-Δ19del/T790M/C797S; numeric values) [nM]
COc1cc(N2CCN(C3CCCC3)CC2)c(-c2cnn(C)c2)cc1Nc1ncc(Br)c(Nc2ccc3nc(C4CC4)ccc3c2P(C)(C)=O)n1 [Compound 27, (6-((5-Bromo-2-((4-(4-cyclopentylpiperazine-1-yl)-2-methoxy-5-(1-methyl-1H-pyrazole-4-Yl)phenyl)amino)pyrimidin-4-yl)amino)-2-cyclopropylquinolin-5-yl)dimethylphosphine oxide] | 5.93 | 8.7 | 8.89 |  |  |  | 
COc1cc(N2CCOCC2)c(-c2cnn(C)c2)cc1Nc1ncc(Br)c(Nc2ccc3nccnc3c2P(C)(C)=O)n1 [Compound 16] |  |  |  | ≤ 50 | ≥ 9.00 | ≤ 50 | 
CCn1cc(-c2cc(Nc3ncc(Br)c(Nc4ccc(C)c(C)c4P(C)(C)=O)n3)c(OC)cc2N2CCC(N3CCCCC3)CC2)cn1 [Compound 20] | 6.82 | 0.4 | 9.70 |  |  |  | 0.7
COc1cc(N2CCC(N3CCN(C)CC3)CC2)c(-c2cnn(C)c2)cc1Nc1ncc(Cl)c(Nc2ccc3nc(C4CC4)ccc3c2P(C)(C)=O)n1 [Compound 28, (6-((5-Chloro-2-((2-methoxy-5-(1-methyl-1H-pyrazol-4-yl)-4-(4-(4-methylpiperazine-1-yl)piperidine-1-yl)phenyl)amino)pyrimidin-4-yl)amino)-2-cyclopropylquinolin-5-yl)dimethylphosphine oxide] | 6.70 | 6.6 | 9.51 |  |  |  | 1
COc1cc(N2CCC(N3CCN(C)CC3)CC2)c(-c2cnn(C)c2)cc1Nc1ncc(Br)c(Nc2ccc3nccnc3c2P(C)(C)=O)n1 [Compound 10] |  |  |  | ≤ 50 | ≥ 9.00 | ≤ 50 | 
CCn1cc(-c2cc(Nc3nccc(Nc4ccc(C)c(C)c4P(C)(C)=O)n3)c(OC)cc2N2CCOCC2)cn1 [Compound 23, (6-(2-(5-((1-Ethyl-1hydro-pyrazol-4-yl)-2-methoxy-4-morpholinophenyl)amino)pyrimidine-4-amino)-2,3dimethylphenyl) dimethylphosphine oxide] |  |  | 8.85 |  |  |  | 
COc1cc(N2CCOCC2)c(-c2cnn(C)c2)cc1Nc1ncc(Cl)c(Nc2ccc3nccnc3c2P(C)(C)=O)n1 [Compound 9] | 6.60 | 16.8 | 9.52 |  |  |  | 8
CCn1cc(-c2cc(Nc3ncc(Br)c(Nc4ccc(C)c(C)c4P(C)(C)=O)n3)c(OC)cc2N2CCOCC2)cn1 [Compound 21] | 6.33 | 3.6 | 9.52 |  |  |  | 0.7
COc1cc(N2CCC(N3CCCCC3)CC2)c(-c2cnn(C)c2)cc1Nc1ncc(Br)c(Nc2ccc3nccnc3c2P(C)(C)=O)n1 [Compound 11, (6-((2-((4-([1,4′-Bipiperidine]-1′-yl)-2-methoxy-5-(1-methyl-1H-pyrazole-4-yl)phenyl)amino)-5-bromopyrimidin-4-yl)amino)quinoxalin-5-yl)dimethylphosphine oxide] |  |  |  | ≤ 50 | ≥ 9.00 | ≤ 50 | 
CCn1cc(-c2cc(Nc3ncc(Br)c(Nc4ccc5nc(C6CC6)ccc5c4P(C)(C)=O)n3)c(OC)cc2N2CCOCC2)cn1 [Compound 24] |  |  | 7.77 |  |  |  | 
COc1cc(N2CCC(N3CCCCC3)CC2)c(-c2cnn(C)c2)cc1Nc1ncc(Br)c(Nc2ccc(C3CC3)c(C)c2P(C)(C)=O)n1 [Compound 13] |  |  |  | ≤ 50 | ≥ 9.00 | ≤ 50 | 
COc1cc(N2CCC(N3CCN(C)CC3)CC2)c(-c2cnn(C)c2)cc1Nc1ncc(Br)c(Nc2ccc(C3CC3)c(C)c2P(C)(C)=O)n1 [Compound 12] |  |  |  | ≤ 50 | ≥ 9.00 | ≤ 50 | 

Further lines, results first:

pIC50 [1] | GI50 (Ba/F3-L858R/T790M/C797S; numeric values) [nM] | pIC50 (EGFR Δ19del/T790M/C797S; numeric values) | GI50 (Ba/F3-L858R/T790M/C797S; class symbols) [nM] | pIC50 (EGFR Δ19del/T790M/C797S; class symbols) | GI50 (Ba/F3-Δ19del/T790M/C797S; class symbols) [nM] | GI50 (Ba/F3-Δ19del/T790M/C797S; numeric values) [nM] | SMILES
 |  |  | ≤ 50 | ≥ 9.00 | ≤ 50 |  | COc1cc(N2CCN3CCCC[C@@H]3C2)c(-c2cnn(C)c2)cc1Nc1ncc(Cl)c(Nc2ccc(C)c(C)c2P(C)(C)=O)n1 [Compound 8, (R)-(6-((5-chloro-2-((2-methoxy-5-(1-methyl-1H-pyrazol-4-yl)-4-(octahydro-2hydro-Pyridine[1,2-a]pyrazine-2-yl)phenyl)amino)pyrimidine-4-yl)amino)-2,3-dimethylphenyl)dimethylphosphine oxide]
 |  |  | ≤ 50 | ≥ 9.00 | ≤ 50 |  | COc1cc(N2CCC(N3CCCC3)CC2)c(-c2cnn(C)c2)cc1Nc1ncc(Cl)c(Nc2ccc(C)c(C)c2P(C)(C)=O)n1 [Compound 6]
 |  |  | ≤ 50 | ≥ 9.00 | ≤ 50 |  | COc1cc(N2CCC(N3CCCCC3)CC2)c(-c2cnn(C)c2)cc1Nc1ncc(Br)c(Nc2ccc(C)c(C)c2P(C)(C)=O)n1 [Compound 15, (6-((2-((4-([1,4′-Bipiperidine]-1′-yl)-2-methoxy-5-(1-methyl-1H-pyrazole-4-yl)phenyl)amino)-5-bromopyrimidine-4-yl)amino)-2,3-dimethylphenyl)dimethylphosphine oxide]
6.72 | 14.9 |  |  | ≥ 9.00 |  | 10.2 | COc1cc(N2CCC(N(C)C)CC2)c(-c2cnn(C)c2)cc1Nc1ncc(Cl)c(Nc2ccc(C)c(C)c2P(C)(C)=O)n1 [Compound 4, (6-((5-Chloro-2-((4-(4-(dimethylamino)piperidine-1-yl)-2-methoxy-5-(1-methyl-1H-pyrazole-4-yl)phenyl)amino)pyrimidine-4-yl)amino)-2,3-dimethylphenyl)dimethylphosphine oxide]
 |  |  | ≤ 50 | ≥ 9.00 | ≤ 50 |  | COc1cc(N2CCC(N3CCN(C)CC3)CC2)c(-c2cnn(C)c2)cc1Nc1ncc(Br)c(Nc2ccc(C)c(C)c2P(C)(C)=O)n1 [Compound 14, (6-((5-Bromo-2-((2-methoxy-5-(1-methyl-1h-pyrazol-4-yl)-4-(4-(4-methylpiperazine-1-yl)piperidine-1-yl)phenyl)amino)pyrimidine-4-yl)amino)-2,3-dimethylphenyl)dimethylphosphine oxide]
6.24 | 60.4 | 9.52 |  |  |  | 60.4 | COc1cc(N2CCC(N(C)C)CC2)c(-c2cn[nH]c2)cc1Nc1ncc(Cl)c(Nc2ccc3nccnc3c2P(C)(C)=O)n1 [Compound 3, (6-((5-Chloro-2-((4-(4-(dimethylamino)piperidin-1-yl)-2-methoxy-5-(1H-pyrazol-4-yl)benzene)amino)pyrimidin-4-yl)amino)quinoxalin-5-yl)dimethylphosphine oxide]
 |  |  | 50 to 100 | 7.00 to 9.00 | 50 to 100 |  | COc1cc(N2CCC3(CC2)CN(C)C3)c(-c2cnn(C)c2)cc1Nc1ncc(Cl)c(Nc2ccc(C)c(C)c2P(C)(C)=O)n1 [Compound 7]
